Columns and labels:
[1] = system: gp160 processing; conditions: cell-permeable peptide; cited from earlier work
[2] = biological target: furin (recombinant soluble hfurin) (Homo sapiens, UniProt P09958); experiment: Inhibition assay of furin with fluorogenic substrate Pyr-RTKR-MCA; assay type: biochemical; conditions: up to 100 μM heparin (20 μM or 100 μM); fluorescence
Chain of furin (recombinant soluble hfurin) (P09958 108-715 limits assumed): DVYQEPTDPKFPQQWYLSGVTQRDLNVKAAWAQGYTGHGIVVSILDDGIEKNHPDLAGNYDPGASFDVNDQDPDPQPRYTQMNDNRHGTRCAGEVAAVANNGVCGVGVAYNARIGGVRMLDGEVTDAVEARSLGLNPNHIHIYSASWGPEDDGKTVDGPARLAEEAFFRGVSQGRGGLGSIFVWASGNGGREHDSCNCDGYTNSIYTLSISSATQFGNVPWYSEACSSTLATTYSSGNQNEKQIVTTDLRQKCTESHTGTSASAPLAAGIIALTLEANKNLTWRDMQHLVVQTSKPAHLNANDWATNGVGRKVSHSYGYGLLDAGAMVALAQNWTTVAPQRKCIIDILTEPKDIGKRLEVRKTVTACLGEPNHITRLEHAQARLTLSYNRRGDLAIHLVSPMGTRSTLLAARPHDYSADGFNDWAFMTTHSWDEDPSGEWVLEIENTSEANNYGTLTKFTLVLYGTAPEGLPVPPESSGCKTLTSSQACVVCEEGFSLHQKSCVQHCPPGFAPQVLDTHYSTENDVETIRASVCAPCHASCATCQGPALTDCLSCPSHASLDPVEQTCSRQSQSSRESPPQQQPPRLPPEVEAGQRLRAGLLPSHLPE

Substance | Interference with gp160 processing [1] | Influence on furin activity on Pyr-RTKR-MCA processing [2]
KIEPLGVAPTKAKRRVVQREKR [22mer] | interferes with gp160 processing | –
heparin | – | did not influence furin activity

Source: article PMC7125586 (Febs Letters, 2007)
